Measured values as given in patent US20140088039A1, “OPHTHALMIC SOLUTION CONTAINING HYALURONIC ACID OR SALT THEREOF AND PROPYLENE GLYCOL” (priority 2011, published 2014).

Test system: SV40 immortalized human corneal epithelial cells (HCE-T)
Assay: Evaluation test of protective effect on corneal epithelial cell (drying load)
Type: cell-based
Details: 1 h pre-culture with 0.25% (w/v) propylene glycol and/or 0.03% (w/v) sodium hyaluronate, dried 7.5 minutes, FIG. 1
Protocol: SV40 immortalized human corneal epithelial cells: (HCE-T: RIKEN BioResource Center, Japan, Cell No.: RCB2280) were seeded to a 96-well plate (1×10^4 cells/well) and cultured for one day in an SHEM culture medium. On the next day, the culture medium was replaced with a D-MEM/F12 culture medium containing 0.25% (w/v) propylene glycol, 0.03% (w/v) sodium hyaluronate, or 0.25% (w/v) propylene glycol and 0.03% (w/v) sodium hyaluronate, and thereafter the corneal epithelial cells were cultured for one hour (hereinafter, each also referred to as a “propylene glycol alone group,” a “hyaluronic acid alone group,” or a “propylene glycol/hyaluronic acid combination group”). It is noted that a group that a culture medium was replaced with a D-MEM/F12 culture medium not containing a tested substance and thereafter the corneal epithelial cells were cultured for one hour was defined as a “vehicle group”. After culture, a culture medium of each group was replaced with a D-MEM/F12 culture medium not containing a tested substance and then cells were dried for 7.5 minutes. After drying load, cell viability was measured using Cell Proliferation Assay Kit (manufactured by Promega, catalogue No.: G3580) (corresponding to absorbance of 490 nm).

Compound | Suppression of decrease in cell viability of corneal epithelial cells due to drying load
CC(O)CO (centres unmarked) [propylene glycol] | not sufficiently suppressed
sodium hyaluronate [hyaluronic acid] | not sufficiently suppressed
